Experimental data as given in US20020177575A1, “Identification of farnesyl-protein transferase as a target for systemic lupus erythematosus therapies” (priority 2001, published 2002).

Columns and labels:
B6.Sle1(a+b) mice = assay: Suppression of anti-nuclear autoantibody (ANA) production in B6.Sle1(a+b) mice; anti-histone-DNA ANA in sera by ELISA; format: in vivo, mouse; details: daily intraperitoneal injection, 75 mg/kg body weight for 4 weeks, sera before, during and after treatment
Procedure: T0 represents the OD value for measuring the titer of anti-Histone/DNA antibodies before treatment. T represents the OD value for measuring the titer of anti-Histone/DNA antibodies at a time point during or after treatment. Each point represents Mean±SE. Mice in control group were given vehicle (Tricaprylin) only.
To study whether POH can inhibit anti-nuclear autoantibody (ANA) production, the inventors treated B6.Sle1(a+b) mice by daily intraperitoneal injection of POH at a dose of 75 mg/kg body weight for 4 weeks. Sera were collected before, during, and after treatment. Levels of anti-histone-DNA ANA were determined by ELISA.

[1] = system: ras protein farnesylation; details: has been shown (prior knowledge); cited from earlier work

C=C(C)[C@@H]1CC=C(CO)CC1 [POH, Perillyl alcohol]
Sle1-mediated anti-histone-DNA ANA production (B6.Sle1(a+b) mice; FIG. 3): can be suppressed | Sle1-mediated anti-histone-DNA ANA production (B6.Sle1(a+b) mice; FIG. 3, listed as perillyl alcohol (POH)): Inhibitory effect | ras protein farnesylation [1]: has been shown to inhibit ras protein farnesylation
